According to PMC7235904, “Is Blood a Good Indicator for Detecting Antimicrobials in Meat? Evidence for the Development of In Vivo Surveillance Methods” (Antibiotics, 2020):
Where two headings read alike, the source gives them in different places. Marks after values point to notes of the source that are not given here.

Assay: Antimicrobial residue concentration and depletion in muscle of treated pigs within the withdrawal period (LC-MS/MS or HPLC-FLD)
Format: in vivo
Details: for concentration at 2 day of withdrawal period: withdrawal period Day 2, pig; for concentration at 3 day of withdrawal period: withdrawal period Day 3, pig
Description: To obtain samples containing antimicrobial compounds administered in vivo, 93 piglets (62 female, 31 male) with an average weight of 43.00 ± 12.79 kg were provided at treatment onset. These piglets were untreated animals that remained on the premises of the Faculty of Veterinary Sciences at the University of Zaragoza (Zaragoza, Spain) 40 days before administration of the compounds. Both during the acclimatization and withdrawal periods, animals were fed ad libitum with a special mixed feed that was free of antibiotics ([…], Spain), and water was provided from a separated, controlled water circuit. Piglets were raised in separate pens depending on the antibiotic administrated. After administration, animals were slaughtered at preset intervals within the withdrawal period in order to obtain samples containing different antimicrobial concentrations above and below the MRLs for muscle. Figure S1 indicates the slaughter days and the withdrawal periods set by the manufacturer for each antimicrobial compound administered. Between one and three piglets were slaughtered on the same day post-administration. The day of slaughter was calculated from the first day after the last antimicrobial treatment dose. […] Apart from samples containing antimicrobial compounds administered in vivo, and as a part of the sample bank, 15 of the 93 piglets were slaughtered after the acclimatization period and before treatment onset. Animals were stunned and slaughtered following the guidelines established by European Council Regulation (EC) No. 1099/2009 [39] regarding the protection of animals at the time of slaughter or killing. A penetrative captive bolt gun was used to stun the pigs, positioning it firmly against the skin, in the middle of the forehead, 2 cm above the line of the eyes, aiming towards the tail. This was followed by complete exsanguination carried out by incision in the jugular furrow at the base of the neck to sever all the major blood vessels arising from the heart. The samples obtained from them were used as blank samples for analysis. […] Samples were immediately frozen at -20 °C until analysis. For HPLC-FLD analyses, matrix solid phase dispersion (MSPD) was used. A total of 1.00 ± 0.01 g of tissue was weighed. Internal quality control samples were spiked at this point. […] It was introduced into a 25 mL reservoir and compacted. Clean-up was made with 8 mL of hexane, and quinolones were eluted with 15 mL acetonitrile/methanol (1:1) acidified with acetic acid 1%. […] The extraction procedure for LC-MS/MS determination was based on Chico et al.. […] All samples were spiked with IS at this point, and calibrants and internal quality control samples were prepared by spiking the corresponding amount of standard working solution. A total of 200 μL of 0.1 M EDTA was added, followed by 10 mL of 70% methanol, and samples were vortexed for 30 s, swung for 15 min, and finally centrifuged at 4500 rcf for 10 min at a temperature below 10 °C (Heraeus Multifuge X3 FR, Heraeus, Hanau, Germany). Then, 500 μL of supernatant was collected and diluted by adding 1500 μL of water. Extracts were filtered through 0.2 μm pore filters directly into LC-MS/MS vials. […] Mobile phase consisted of eluent A: phosphoric acid with trimethylamine buffer (pH = 3), and eluent B: acetonitrile, in isocratic mode (21:79) with a flow rate of 1 mL/min. Injected volume was 50 μL. […] The same mobile phase and gradient conditions as in SCIEX instruments were applied. Injected volume was 10 μL. Two ESI+ MRM transitions were monitored for each compound (Table S5). […] Results were represented as the mean ± standard deviation using the PRISM program (GraphPad Software, Inc., San Diego, USA). The rates of elimination (λz) of antibiotics from muscle and blood were determined by regression analysis. […]

[1] = forequarter muscle, intramuscular, read-out: Concentration in Forequarters
[2] = hindquarter muscle, intramuscular, read-out: Concentration in Hindquarters
[3] = loin muscle, intramuscular, read-out: Concentration in Loins
[4] = over the sample bank of treated piglets

Question: For `COc1ccc(NS(=O)(=O)c2ccc(N)cc2)nn1` [Sulfamethoxypyridazine, sulfamethoxypyridazine], which half-life (both sexes, intramuscular, pig muscle, T1/2=Ln(2)/λz, read-out: T1/2 half-life of elimination (MUSCLE) (converted)) is on record?
Answer: The half-life was 13.2 h.

Question: What about the concentration at 2 day of withdrawal period [1] of the same compound?
Answer: The concentration at 2 day of withdrawal period was 311 ± 22.6 ng/g.

Question: What about the concentration at 3 day of withdrawal period [1] of the same compound?
Answer: The concentration at 3 day of withdrawal period was 43 ng/g.

Question: And the concentration at 2 day of withdrawal period [2]?
Answer: Its concentration at 2 day of withdrawal period is 351 ± 20.1 ng/g.

Question: And the concentration at 3 day of withdrawal period [2]?
Answer: The concentration at 3 day of withdrawal period was 40.5 ± 0.71 ng/g.

Question: What about the concentration at 2 day of withdrawal period [3] of the same compound?
Answer: Its concentration at 2 day of withdrawal period is 349 ± 16.5 ng/g.

Question: And the concentration at 3 day of withdrawal period [3]?
Answer: Its concentration at 3 day of withdrawal period is 49.5 ± 0.71 ng/g.

Question: What about the “Maximum concentration value in Muscle” value [4] of the same compound?
Answer: The value was 1179.67 ± 41.88 µg/kg.

Question: What about the “Minimum concentration value in Muscle” value [4] of the same compound?
Answer: Its value is 14.00 ± 1.41 µg/kg.

Question: And the “Slope (MUSCLE)” value (pig muscle, regression of concentration over the withdrawal period, deep intramuscular treatment)?
Answer: The value was −0.5494 ± 0.0237 ^a.
